Values of other authors as cited in patent publication US20230405024A1 (priority 2020, published 2023).

cannabidiol [CBD]
solubility in water: insoluble
